From the supplement of paper PMC13380429

Experiments:
Conditions in all cases: 72 h
[1] = tested on: Calu-3; assay: drug sensitivity score (DSS) for viability; higher = more toxic; extreme values may be limits of the assay
[2] = tested on: HepG2; assay: as above
[3] = tested on: U2OS; assay: as above
[4] = tested on: Vero E6; assay: as above
[5] = tested on: Caco-2; assay: cell viability relative to DMSO; higher = less toxic
[6] = tested on: Calu-3; assay: as above
[7] = tested on: HepG2; assay: as above
[8] = tested on: U2OS; assay: as above
[9] = tested on: Vero E6; assay: as above
[10] = tested on: Vero E6; assay: relative viability EC50 (midpoint between 100% and the lowest measured viability); higher = less toxic
[11] = tested on: Caco-2; assay: drug sensitivity score (DSS) for viability; higher = more toxic; extreme values may be limits of the assay
[12] = tested on: HepG2; assay: relative viability EC50 (midpoint between 100% and the lowest measured viability); higher = less toxic
[13] = tested on: U2OS; assay: as above
[14] = tested on: Calu-3; assay: as above

SMILES | drug sensitivity score [1] | drug sensitivity score [2] | drug sensitivity score [3] | drug sensitivity score [4] | cell viability ([5]; 1 nM) [%] | cell viability ([5]; 10 nM) [%] | cell viability ([5]; 100 nM) [%] | cell viability ([5]; 1000 nM) [%] | cell viability ([5]; 10000 nM) [%] | cell viability ([6]; 1 nM) [%] | cell viability ([6]; 10 nM) [%] | cell viability ([6]; 100 nM) [%] | cell viability ([6]; 1000 nM) [%] | cell viability ([6]; 10000 nM) [%] | cell viability ([7]; 1 nM) [%] | cell viability ([7]; 10 nM) [%] | cell viability ([7]; 100 nM) [%] | cell viability ([7]; 1000 nM) [%] | cell viability ([7]; 10000 nM) [%] | cell viability ([8]; 1 nM) [%] | cell viability ([8]; 10 nM) [%] | cell viability ([8]; 100 nM) [%] | cell viability ([8]; 1000 nM) [%] | cell viability ([8]; 10000 nM) [%] | cell viability ([9]; 1 nM) [%] | cell viability ([9]; 10 nM) [%] | cell viability ([9]; 100 nM) [%] | cell viability ([9]; 1000 nM) [%] | cell viability ([9]; 10000 nM) [%] | relative viability EC50 [10] [µM] | drug sensitivity score [11] | relative viability EC50 [12] [nM] | relative viability EC50 [13] [nM] | relative viability EC50 [14] [µM]
O=C(O)c1cc(-c2ccccc2)nc2ccccc12 [cinchophen] | 0 | 0.2 | 0 | 0 | – | – | – | – | – | – | – | – | – | – | – | – | – | – | – | – | – | – | – | – | – | – | – | – | – | – | – | – | – | –
Cc1cc(-c2ccc(/N=N/c3ccc4c(S(=O)(=O)O)cc(S(=O)(=O)O)c(N)c4c3O)c(C)c2)ccc1/N=N/c1ccc2c(S(=O)(=O)O)cc(S(=O)(=O)O)c(N)c2c1O [evans-blue] | 1 | 4.9 | 4.2 | 4.2 | 96.7 | 88.9 | 104 | 97.9 | 51.1 | 92.8 | 101 | 105 | 102 | 71.9 | 102 | 89.6 | 84.2 | 86.5 | 52.6 | 99 | 98.6 | 95.1 | 86.3 | 53.7 | 103 | 106 | 94 | 91.6 | 47.9 | 1.92 | 2.8 | – | – | –
O=C(O)CCC(=O)c1ccc(-c2ccccc2)cc1 [fenbufen] | 0 | 0 | 0 | 0 | – | – | – | – | – | – | – | – | – | – | – | – | – | – | – | – | – | – | – | – | – | – | – | – | – | – | – | – | – | –
Cc1cccc(C(=O)O)c1O [hydroxytoluic-acid] | – | 0 | 0 | 0 | – | – | – | – | – | – | – | – | – | – | 90.6 | 93.6 | 87.1 | 88.5 | 104 | 96.8 | 99.3 | 102 | 108 | 104 | 108 | 104 | 104 | 105 | 99 | > 10 | – | > 10000 | > 10000 | –
CC(=O)NC[C@H]1CN(c2ccc(N3CCOCC3)c(F)c2)C(=O)O1 [linezolid] | – | 0 | 0 | 0 | – | – | – | – | – | – | – | – | – | – | – | – | – | – | – | – | – | – | – | – | – | – | – | – | – | – | – | – | – | –
CCNCCS(=O)(=O)NC[C@@]1(c2ccccc2)SC(NC(=O)C(C)(C)C)=NN1C(=O)C(C)(C)C [litronesib] | 2.8 | 23.3 | 15.5 | 13.9 | 98.1 | 91 | 62.9 | 67.9 | 62.2 | 95.1 | 91.9 | 87 | 84.3 | 81.2 | 89.4 | 72.9 | 35.9 | 34.7 | 33.6 | 104 | 96 | 58 | 49.7 | 44.8 | 97 | 107 | 82.9 | 38.8 | 41.9 | 0.146 | 12.7 | 11.9 | 48.8 | > 10
COc1ccc(OC)c([C@@H](O)CNC(=O)CN)c1 [midodrine] | 0 | 0 | 0 | 0 | – | – | – | – | – | 89.1 | 98.7 | 95.7 | 95.6 | 98.3 | 109 | 102 | 118 | 99.1 | 109 | 99.1 | 104 | 100 | 106 | 105 | 102 | 97.8 | 106 | 95.8 | 108 | > 10 | – | > 10000 | > 10000 | > 10
CO[C@@]12[C@H](COC(N)=O)C3=C(C(=O)C(C)=C(N)C3=O)N1C[C@@H]1N[C@@H]12 [mitomycin-C] | 2.6 | 16.7 | 2.6 | 5.5 | – | – | – | – | – | – | – | – | – | – | – | – | – | – | – | – | – | – | – | – | – | – | – | – | – | – | – | – | – | –
CC(C)(O)c1ccccc1CC[C@@H](SCC1(CC(=O)O)CC1)c1cccc(/C=C/c2ccc3ccc(Cl)cc3n2)c1 [montelukast] | 0 | 0 | 0 | 0 | – | – | – | – | – | – | – | – | – | – | – | – | – | – | – | – | – | – | – | – | – | – | – | – | – | – | – | – | – | –
CCCCN(Cc1ccc(C(=O)NO)cc1)C(=O)Nc1ccccc1 [nexturastat-A] | 4.4 | 4.7 | 5.1 | 2.3 | 101 | 98.8 | 109 | 92.3 | 52.3 | 89.3 | 107 | 98.9 | 88 | 51.7 | 110 | 105 | 97.7 | 90 | 43.9 | 98.1 | 102 | 99.3 | 90.1 | 36.6 | 96.2 | 94.5 | 96.7 | 99.4 | 56.6 | – | 3.8 | 1830 | 1950 | –
CCN(CC)CC#CCOC(=O)C(O)(c1ccccc1)C1CCCCC1 (configuration not stated) [oxybutynin] | 0 | 0 | 0 | 0 | – | – | – | – | – | – | – | – | – | – | – | – | – | – | – | – | – | – | – | – | – | – | – | – | – | – | – | – | – | –
Cc1cc(-c2nc3cc(F)ccc3s2)ccc1NC(=O)[C@@H](N)CCCCN [phortress] | 1.1 | 20 | 0 | 0 | 100 | 100 | 93.3 | 92.2 | 73.5 | 102 | 99.9 | 97.6 | 91.3 | 79.9 | 95.6 | 107 | 86.3 | 3.3 | 1.6 | 97.9 | 93.9 | 97.5 | 95.2 | 93.6 | 92.3 | 95.8 | 94.4 | 97.2 | 107 | > 10 | 1.6 | 208 | > 10000 | > 10
COc1cccc2c1c(O)c(C(=O)N(C)c1ccc(C(F)(F)F)cc1)c(=O)n2C [tasquinimod] | – | 0 | – | 0 | – | – | – | – | – | – | – | – | – | – | 114 | 104 | 105 | 98.9 | 102 | – | – | – | – | – | 94.9 | 98.9 | 96.7 | 93 | 93.9 | > 10 | – | > 10000 | – | –
